# Results taken from US20190153051A1, “FUSION PROTEIN OF C2 DOMAIN AND AKT KINASE DOMAIN FRAGMENT AND USE THEREOF” (Gachon University of Industry-Academic Cooperation …, priority 2017, published 2019).
# Assays:
# [1] = tested on: Akt protein; experiment: Western blotting of Akt protein phosphorylation in insulin-treated HepG2 cells; assay type: cell-based, human; settings: HepG2, PA 24 hours, 100 nM insulin; compared with insulin alone
# Method: First, male C57BL/6 mice at 8 weeks were divided into the fasted group wherein the mice were fasted for 16 hours and the refed group wherein the mice were fasted for 16 hours and then fed for 4 hours. Each group was sub-divided into the high fat diet group (HFD) and the normal diet group (chow). The liver cells were extracted from the raised mice by the same manner and under the same conditions as described in Example 1. The extracted liver cells were lysed in a lysis buffer containing phosphatase (Sigma-Aldrich, USA) and protease inhibitor (Sigma-Aldrich, USA). Proteins extracted from 2 to 3 mg of the liver tissue were homogenized by using a tissue homogenizer (TissuLyser, Qiagen, USA) for 1.5 minutes at a frequency of 1/30 sec. The homogenized lysate was centrifuged at 12,000 rpm for 15 minutes and the supernatant was obtained. The amount of the extracted protein was quantified by using a protein assay kit (Bio-Rad Laboratories, USA), and at this time BSA was used as a standard sample. 3 mg of the protein was mixed with 6× loading buffer, followed by electrophoresis using 10% SDS-PAGE gel. The electrophoresed protein was transferred onto a polyvinylidene fluoride (PVDF) membrane by using a transfer buffer at 4° C. with 120 V for 1.5 hours. The PVDF membrane on which the protein was transferred was pretreated with a blocking buffer prepared by mixing 5% skim milk with TBS buffer (TBS-T, pH 7.6) supplemented with Tween 20 for 30 minutes, and the membrane was washed with TBS-T. The washed membrane was added with the antibody against Akt (Cell Signaling Technology, USA), Akt(T308) (Cell Signaling Technology, USA), Akt(S473) (Cell Signaling Technology, USA), FOXO3A (Cell Signaling Technology, USA), FOXO3A(S253) (Cell Signaling Technology, USA), GSK-3β (Cell Signaling Technology, USA) or GSK-3β(S9) (Cell Signaling Technology, USA) protein as a primary antibody, followed by reaction at 4° C. for 12 hours. At this time, the antibody against actin (Santa Cruz Biotechnology, USA) protein was used for the control group. Upon completion of the reaction, the secondary antibody corresponding to the primary antibody was added thereto, followed by reaction at room temperature for 30 minutes. The PVDF membrane was washed with TBS-T buffer three times. The washed PVDF membrane was added with ECL solution (Thermo Scientific, USA), followed by image observation.
# To investigate the changes in insulin sensitivity when insulin was added to the fatty liver cell model constructed in vitro, the phosphorylations of those proteins that were involved in insulin signaling mechanism were examined. PA was added to the human HepG2 cells prepared in Example 3, followed by reaction for 24 hours. […]
# [2] = tested on: human HepG2 cells; experiment: Intracellular calcium dynamics with Fura-2 AM in insulin resistance induced cells; assay type: cell-based
# Method: First, human HepG2 cells were cultured in DMEM (Dulbecco's Modified Eagle Medium) supplemented with 10% fetal bovine serum (FBS), 25 mM glucose, 2 mM L-glutamine, 100 U/Ml of penicillin and 100 μg/Ml of streptomycin. At this time, the culture was performed in a 37° C., 5% CO2 incubator. The cultured cells were distributed in a culture plate at the density of 5.0×10^5 cells/well, followed by further culture for overnight. Palmitic acid (PA) was added to the plate at the concentration of 0, 100, 300 or 500 μM, followed by reaction for 24 hours. Then, the concentration of calcium was investigated by using Fluo-3 AM according to the same conditions and procedures as described in Example 1, and the results are shown in FIG. 2A and FIG. 2B. Intracellular calcium dynamics was confirmed in the fatty liver cell model constructed in vitro by inducing insulin resistance. At this time, the experiment was performed by the same manner under the same conditions as described in Example 3 except that Fura-2 AM was used instead of Fluo-3 AM.
# [3] = tested on: human HepG2 cells; experiment: Intracellular calcium level with Fluo-3 AM in PA-treated HepG2 cells; assay type: cell-based; settings: PA 0, 100, 300 or 500 μM, 24 hours
# Method: First, male C57BL/6 mice at 8 weeks (Orient Bio, Korea) were raised in an animal facility of Lee Gil Ya Cancer and Diabetes Institute (Gachon University, Korea). Particularly, the mice were raised in a sterile chamber at the temperature of 23±1° C., with 12 hr/12 hr light/dark cycle, and free dietary environment. At this time, the mice were divided into the fasted group wherein the mice were fasted for 16 hours and the refed group wherein the mice were fasted for 16 hours and then fed for 4 hours. Each group was sub-divided into the high fat diet group (HFD) and the normal diet group (chow). The high fat diet group (HFD) mice were fed with diet containing 60% fat, while the normal diet group (chow) mice were fed with diet containing 10% fat. 8 weeks later, the mice were anesthetized and the liver was perfused by using buffer 1 (142 mM NaCl, 6.7 mM KCl, 10 mM HEPES and 2.5 mM EGTA, pH 7.4). Buffer 1 above was replaced with buffer 2 (0.5 mg/Me collagen, 66.7 mM NaCl, 6.7 mM KCl, 10 mM HEPES and 4.8 mM CaCl, pH 7.6), and then the perfused liver was extracted. The extracted liver was washed and degraded by using Percoll cushion gradient. The degraded cells were suspended and cultured in Hepatozyme-SFM (Gibco-BRL, USA) culture medium supplemented with 10% FBS and 1% antibiotics and antifungal agent. […] The mounted cells were analyzed using a fluorescence microscope (Zeiss Axioplan 2). […]
smiles,measurement,setting,value
"CCCCCCCCCCCCCCCC(=O)O [PA, Palmitic acid]",Akt protein phosphorylation,[1],significantly inhibited
same,intracellular calcium concentration,[2],significantly increased
same,concentration of calcium in the cytoplasm,[3],increased
